According to patent US8784795B2, “Methods for determining personalized treatment compositions for prostate cancer and breast cancer” (Caldera Health Ltd., priority 2012, dated 2014):

What was measured:
[1] = system: hormone refractory prostate cancer; conditions: clinical trial; cited from earlier work
blood cells = experiment: Analysis of blood cells treated with Leukine in vivo for changes in perforin levels
Source text: […]

prostate cancer = conditions: patients; cited from earlier work

| Molecule | response rate [1] | change in perforin levels of blood cells (blood cells) | control of prostate cancer (prostate cancer) |
| --- | --- | --- | --- |
| CC(=O)N1CCN(c2ccc(OCC3COC(Cn4ccnc4)(c4ccc(Cl)cc4Cl)O3)cc2)CC1 (stereo not drawn) [ketoconazole] | 50% |  |  |
| Leukine®: granulocyte-macrophage colony stimulating factor (GM-CSF; also known as sargramostim; trade name Leukine®) |  | major increases | long-term control of prostate cancer in a substantial number of patients |
